Measurements as given in patent US9803180B2, “S-adenosylmethionine (SAM) synthase variants for the synthesis of artificial cofactors” (LEIBNIZ-INSTITUT FUR PFLANZENBIOCHEMIE STIFTUNG DES …, priority 2013, dated 2017).
“Also recorded” adds a separate entry of the source.

What was measured:
Type in all cases: biochemical
[1] = Kinetic parameters for the conversion of S-alkylhomocysteines; standard SAM synthase assay, photometric detection of the cleaved phosphate
Text: (§1) FIGS. 3A-3E show the rates of conversion of amino acid substrates catalyzed by the SAMS enzyme from Bacillus subtilis (FIG. 3A) and its variants I317V (FIG. 3B), I317A (FIG. 3C), I105V/I317A (FIG. 3D) or I105A/I317A (FIG. 3E) as a function of the substrate concentration. The reaction with L-methionine (open circles), D,L-methionine (closed circles), D,L-methionine-(methyl-D3) (x), D,L-ethionine (hatched circles), S-n-propyl-D,L-homocysteine (open triangles), S-n-butyl-D,L-homocysteine (closed triangles) or S-(2-methylvinyl)-D,L-homocysteine (diamonds) was assessed by spectrophotometric determination of phosphate which is released from the co-substrate ATP during the reaction.
The kinetic parameters for the conversion of S-alkylhomocysteines by Bacillus subtitlis SAM synthase and its variants as shown in Table 1 were calculated from the conversion rates of methionine and analogues as a function of the substrate concentration […] which were determined by the standard SAM synthase assay known in the art, i.e. by photometric detection of the cleaved phosphate.

[2] = Substrate spectrum: conversion of methionine and S-alkylhomocysteine derivatives by SAM synthase and variants; conditions: for substrate acceptance (which amino acid substrates are converted): in words
Text: as §1
For these studies, a series of S-alkylhomocysteines with linear (D,L-methionine-(methyl-D3), -ethionine, -propionine and -buthionine), branched (D,L-isopropionine and -isobuthionines), unsaturated (D,L-methylvinylhomocysteine) and functionalized (D,L-hydroxyethionine and -carboxymethionine) alkyl groups were synthesized from D,L-homocysteine thiolactone and tested for conversion by the cloned (wildtype) SAM synthase.
As derived from a homology model which is based on the crystal structure of the protein from E. coli (PDB code 1XRA), a hydrophobic cleft formed from two conserved isoleucine residues hinders the generation of cofactor analogues from amino acid substrates with bulky alkyl residues (FIG. 2). Accordingly, both residues were exchanged against less voluminous amino acids by site-directed mutagenesis.
To further probe the role of the proximate isoleucine residue I105 in substrate recognition, the variants I105V/I317A and I105A/I317A were generated. […] Compared to the wild-type enzyme (FIG. 3A), substrate specificity of the variant I105A/I317A (FIG. 3E) is inverted (S-n-propylhomocysteine>S-n-butylhomocysteine>ethionine>>methionine).

[3] = Preparative synthetic reactions (200 μmol): conversion of the L-amino acid; conditions: for conversion: 8 hours; for L-amino acid converted: 18 hours, 200 μmol scale
Description: The suitability of the wild-type protein and of variants with appropriate substrate specificity (I317V and I317A) for the synthesis of SAM and analogues was evaluated by high-performance thin-layer chromatography. Since the enzymes were not inhibited by the D-enantiomer of the amino acid substrates, methionine and its derivatives could be advantageously applied as racemic mixture of its stereoisomeres in these reactions. […] Accordingly, transformation of methionine and ethionine by SAMS-I317V in preparative synthetic reactions led to high conversion rates for the amino acid substrates. The syntheses were performed similar to the kinetic experiments but in larger scale (200 μmol). After prolonged incubation (18 hours) to reach maximum product yield, 84 and 89% of the L-amino acid was converted. In the production of the n-propyl- and n-butyl analogues of SAM by the variant I317A, 43% and 28% of conversion could be reached after 8 hours of reaction time. After product purification by cation exchange chromatography on SP-Sephadex C-25, SAM and its homologs could be recovered in final yields of 25, 17, 8 and 11%, respectively. As proven by ^1H NMR, the enzymatically produced SAM contained a high excess (≧90%) of the biologically active (S,S)-epimer.

[4] = Time course of formation of SAM and SAM derivatives, analyzed by HPTLC; conditions: racemic amino acid 10 mM, enzyme 10 mU ml^−1; in words
Description: FIGS. 4A-4C show the formation of SAM and SAM derivatives by the SAM synthase enzyme from Bacillus subtilis (FIG. 4A) or its variants I317V (FIG. 4B) and I317A (FIG. 4C). The conversion of the L-enantiomer of methionine (closed circles), ethionine (hatched circles), S-n-propylhomocysteine (open triangles) and S-n-butylhomocysteine (closed triangles) from the corresponding racemic amino acid (10 mM) was performed in the presence of equal amounts of enzyme (10 mU ml^−1). The reactions were analyzed by HPTLC.
The suitability of the wild-type protein and of variants with appropriate substrate specificity (I317V and I317A) for the synthesis of SAM and analogues was evaluated by high-performance thin-layer chromatography. Since the enzymes were not inhibited by the D-enantiomer of the amino acid substrates, methionine and its derivatives could be advantageously applied as racemic mixture of its stereoisomeres in these reactions. […] Accordingly, transformation of methionine and ethionine by SAMS-I317V in preparative synthetic reactions led to high conversion rates for the amino acid substrates. The syntheses were performed similar to the kinetic experiments but in larger scale (200 μmol). After prolonged incubation (18 hours) to reach maximum product yield, 84 and 89% of the L-amino acid was converted. […]

[5] = Activity of further position 317 SAM synthase variants (Example 4)
Text: The influence of position 317 on catalytic turnover and its crucial role in determination of substrate spectrum was additionally confirmed by introduction of other small- and medium-sized amino acid residues.

[6] = substrate S-n-butyl-D,L-homocysteine
[7] = substrate S-n-propyl-D,L-homocysteine
[8] = substrate S-(2-methylvinyl)-D,L-homocysteine
[9] = substrate D,L-methionine-(methyl-D3)

Substance | S0.5 ([1]; substrate D,L-ethionine) | Vmax ([1]; substrate D,L-ethionine) | h ([1]; substrate D,L-ethionine) | Vmax ([1]; substrate D,L-methionine) | S0.5 [1, 6] | Vmax [1, 6] | h [1, 6] | S0.5 [1, 7] | Vmax [1, 7] | h [1, 7] | substrate acceptance (which amino acid substrates are converted) [2] | S0.5 ([1]; substrate D,L-methionine) | h ([1]; substrate D,L-methionine) | S0.5 ([1]; substrate L-methionine) | Vmax ([1]; substrate L-methionine) | h ([1]; substrate L-methionine) | product inhibition by SAM [4] | further results
I105A/I317A: I105A/I317A SAM synthase variant (SEQ ID NO: 4) | 3.91 ± 0.27 mM | 3.0 ± 1.8 nmol/min/mg | 2.9 ± 0.4 | 0.8 ± 0.2 nmol/min/mg | =10.0 mM | =4.0 ± 0.2 nmol min^-1 mg^-1 | 0.8 ± 0.1 | =10.0 mM | =10.8 ± 0.1 nmol min^-1 mg^-1 | 1.0 ± 0.1 | acceptance of the artificial long-chain substrates only; also recorded: prefer long-chain substrates |  |  |  |  |  |  | substrate specificity (rank order) ([2]; FIG. 3E, compared to wild-type): S-n-propylhomocysteine>S-n-butylhomocysteine>ethionine>>methionine
I105V/I317A: I105V/I317A SAM synthase variant (SEQ ID NO: 6) | 4.25 ± 0.20 mM | 5.7 ± 0.3 nmol/min/mg | 4.6 ± 0.8 | 17.0 ± 2.0 nmol/min/mg | 4.20 ± 0.41 mM | 11.9 ± 0.9 nmol/min/mg | 2.0 ± 0.2 | 1.86 ± 0.41 mM | 17.7 ± 1.5 nmol/min/mg | 1.0 ± 0.1 | prefer long-chain substrates | 3.77 ± 1.02 mM | 1.0 ± 0.1 |  |  |  |  | 
I317A: I317A SAM synthase variant (SEQ ID NO: 2) of Bacillus subtilis SAM synthase | 2.99 ± 0.23 mM | 44.1 ± 1.6 nmol/min/mg | 1.2 ± 0.1 | 37.7 ± 0.8 nmol/min/mg | 3.56 ± 0.45 mM | 35.4 ± 2.6 nmol/min/mg | 1.4 ± 0.1 | 0.90 ± 0.05 mM | 34.2 ± 0.7 nmol/min/mg | 1.1 ± 0.1 | active on ethionine, propionine, buthionine and the unsaturated D,L-methylvinylhomocysteine | 0.92 ± 0.05 mM | 1.1 ± 0.1 | 0.46 ± 0.02 mM | 34.8 ± 0.5 nmol/min/mg | 1.3 ± 0.1 | much less affected by product inhibition; also recorded: less pronounced | S0.5 [1, 8]: 0.79 ± 0.04 mM; Vmax [1, 8]: 22.4 ± 0.4 nmol/min/mg; h [1, 8]: 1.2 ± 0.1; conversion ([3]; production of n-butyl analogue of SAM): 28%; conversion ([3]; production of n-propyl analogue of SAM): 43%
I317C: Bacillus subtilis SAM synthase with position 317 substituted by cysteine; tolerably active enzyme |  |  |  |  |  |  |  |  |  |  |  |  |  |  |  |  |  | activity (conversion) ([5]; 5 mM D,L-buthionine): 6.0 ± 0.3 nmol/min/mg; activity (conversion) ([5]; 5 mM D,L-ethionine): 16.4 ± 0.7 nmol/min/mg; activity (conversion) ([5]; 5 mM D,L-methionine): 59.4 ± 0.4 nmol/min/mg; activity (conversion) ([5]; 5 mM D,L-propionine): 8.4 ± 0.3 nmol/min/mg
I317V: I317V SAM synthase variant (SEQ ID NO: 3) of Bacillus subtilis SAM synthase | 10.94 ± 2.70 mM | 51.2 ± 9.1 nmol/min/mg | 1.3 ± 0.1 | 446.2 ± 13.8 nmol/min/mg |  |  |  |  |  |  | also converts ethionine | 1.71 ± 0.12 mM | 1.3 ± 0.1 | 0.72 ± 0.04 mM | 408.0 ± 7.7 nmol/min/mg | 1.2 ± 0.1 |  | L-amino acid converted ([3]; ethionine): 89%; L-amino acid converted ([3]; methionine): 84%
Wild-type: wildtype Bacillus subtilis S-Adenosylmethionine (SAM) synthase, SEQ ID NO: 1, recombinantly expressed in E. coli BL21 (DE3) [reference compound] |  |  |  | 90.8 ± 1.6 nmol/min/mg |  |  |  |  |  |  | did not accept any of these methionine derivatives | 1.92 ± 0.12 mM | 1.7 ± 0.2 | 1.04 ± 0.14 mM | 93.2 ± 3.1 nmol/min/mg | 1.1 ± 0.1 | inhibited by its product SAM | inhibition by the D-enantiomer of methionine ([1]; FIG. 3A, in words): not inhibited by the D-enantiomer of methionine; S0.5 [1, 9]: 1.86 ± 0.07 mM; Vmax [1, 9]: 79.8 ± 2.3 nmol/min/mg; h [1, 9]: 2.2 ± 0.2
